Assay results from patent US20240307401A1, “TREATMENT OF JAK-INHIBITION-RESPONSIVE DISORDERS WITH PRODRUGS OF JAK INHIBITORS” (SUN PHARMACEEUTICAL INDUSTRIES, INC., priority 2021, published 2024).

Columns and labels:
[1] = In vitro conversion of Compound (I-1d) DBTA salt to CTP-543 under conditions similar to human stomach (0.1N HCl, 37° C.), HPLC analysis; format: physicochemical; conditions: for CTP-543 Concentration: 28.5 mg DBTA salt in 250 mL
Procedure: An in vitro study was conducted to test the conversion of the dibenzoyl-D-tartaric acid (DBTA) salt of Compound (I-1d) (a compound of Formula (I)) to CTP-543 (a compound of Formula (III)) when subjected to biologically-relevant conditions similar to human stomach conditions (0.1N hydrochloric acid, 37° C.).
Study Conditions: At 37° C., 28.5 mg of Compound (I-1d)·DBTA salt (equivalent to 14.6 mg of Compound (I-1d)) was added to 250 mL of 0.1N HCl while stirring. Samples were removed via syringe at 30, 60, 120 and 240 minutes, (times relevant to potential human gastric residence time), then were filtered through a syringe filter and analyzed by HPLC.

[2] = system: patients suffering from alopecia areata; conditions: human clinical trials, at certain doses; cited from earlier work

| % Conversion to CTP-543 ([1]; 30 min) [%] | CTP-543 Concentration ([1]; 30 min) [mg/mL] | % Conversion to CTP-543 ([1]; 60 min) [%] | CTP-543 Concentration ([1]; 60 min) [mg/mL] | % Conversion to CTP-543 ([1]; 120 min) [%] | CTP-543 Concentration ([1]; 120 min) [mg/mL] | % Conversion to CTP-543 ([1]; 240 min) [%] | CTP-543 Concentration ([1]; 240 min) [mg/mL] | SMILES | Hair growth in patients suffering from alopecia areata [2] |
| --- | --- | --- | --- | --- | --- | --- | --- | --- | --- |
| 8 | 0.004 | 10 | 0.005 | 16 | 0.008 | 22 | 0.011 | [2H]C1([2H])C([C@@H](CC#N)n2cc(-c3ncnc(N)c3CC(OC)OC)cn2)C([2H])([2H])C([2H])([2H])C1([2H])[2H] [Compound (I-1d)] |  |
|  |  |  |  |  |  |  |  | [2H]C1([2H])C([C@@H](CC#N)n2cc(-c3ncnc4[nH]ccc34)cn2)C([2H])([2H])C([2H])([2H])C1([2H])[2H] [CTP-543, (R)-3-(4-(7H-pyrrolo[2,3-d]pyrimidin-4-yl)-1H-pyrazol-1-yl)-3-(cyclopentyl-2,2,3,3,4,4,5,5-d8)propanenitrile] | shown to stimulate hair growth |
